Measured values reported in patent US20250381168A1, “VLA4 INHIBITORS AND USES THEREOF” (Washington University, priority 2022, published 2025).
“Also recorded” adds a separate entry of the source. Where two headings read alike, the source gives them in different places. Values belong to the compound of their own block, whether it stands above or below them.

Assays:
VLA-4 (a4b1) = VLA-4 (a4b1) (Homo sapiens (Human), UniProt P05556+P13612); assay: sVCAM flow cytometry cell-based assay (inhibition of soluble VCAM-1 binding to G2 ALL cells);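 further: compounds at 0.1 to 1000 nM preincubated 30 min with G2 ALL cells, then VCAM/Fc added for 30 min, bound VCAM-1 detected by PE secondary antibody, percent binding cells by flow cytometry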
[1] = test system: hematopoietic stem/progenitor cells (HSPCs); assay: HSPC mobilization into peripheral blood, colony forming unit (CFU) assay; on HSPC mobilization, result in words: test concentration or dose not given here; on No. CFU (×10^3)/mL ± SD, 6 hr: test concentration or dose not given here; conditions: mice; for No. CFU (x10^3)/mL ± SD, 2 hr / No. CFU (x10^3)/mL ± SD, 4 hr / No. CFU (x10^3)/mL ± SD, 6 hr / No. CFU (x10^3)/mL ± SD, 8 hr: single injection; for No. CFU (x10^3)/mL ± SD, 2 hr: 2 hr post dose (TABLE 12); for No. CFU (x10^3)/mL ± SD, 4 hr: 4 hr post dose (TABLE 12); for No. CFU (x10^3)/mL ± SD, 6 hr: 6 hr post dose (TABLE 12); for No. CFU (x10^3)/mL ± SD, 8 hr: 8 hr post dose (TABLE 12)
integrin a4b7 = integrin a4b7 (Homo sapiens (Human), UniProt P13612+P26010); assay: a4b7 solid phase receptor assay (SPRA); conditions: recombinant human a4b7 binding to plate-coated human VCAM1 (TABLE 4)
Protocol: Wells were washed 3 times with TBS+ and blocking buffer (TBS+ with 1% bovine serum albumin), the plate was incubated for 1 hr at 37° C., and then washed 3× with TBS+ buffer. Recombinant human a4b7 (R & D Systems) was diluted to 1 μg/ml in TBS+/0.1% bovine serum albumin. Test compounds were diluted into the integrin solution and added to the washed ligand-coated plate according to a standard template with each sample repeated in triplicate. After incubation for 2 hr at room temperature, the plate was washed 3× with 150 μl of TBS+ buffer. To each well, biotinylated anti-A4 antibody (R & D Systems) at 1 μg/ml in TBS+/0.1% BSA was added and the plate covered and incubated for 1 hr at room temperature. After washing the plate 3× with TBS+ buffer, streptavidin-conjugated horseradish peroxidase (R & D Systems) diluted in TBS+ blocking buffer was added to the wells and the plate incubated for 20 min at room temperature. The plate was washed 3× with TBS+ buffer followed by addition of 50 μl of TMB substrate (Sigma T4444). After incubation for 20 min at room temperature, plates were stopped with TMB stop solution (Sigma S5689) by colorimetric detection at 450 nm wavelength using a Tecan Safire II plate reader.

[2] = as listed in TABLE 12, read-out: sVCAM IC50
[3] = inhibition of sVCAM-1 binding to human G2 ALL cells (TABLE 3), read-out: SVCAM-1, IC50

Sequence of VLA-4 (a4b1) (P13612 34-1032): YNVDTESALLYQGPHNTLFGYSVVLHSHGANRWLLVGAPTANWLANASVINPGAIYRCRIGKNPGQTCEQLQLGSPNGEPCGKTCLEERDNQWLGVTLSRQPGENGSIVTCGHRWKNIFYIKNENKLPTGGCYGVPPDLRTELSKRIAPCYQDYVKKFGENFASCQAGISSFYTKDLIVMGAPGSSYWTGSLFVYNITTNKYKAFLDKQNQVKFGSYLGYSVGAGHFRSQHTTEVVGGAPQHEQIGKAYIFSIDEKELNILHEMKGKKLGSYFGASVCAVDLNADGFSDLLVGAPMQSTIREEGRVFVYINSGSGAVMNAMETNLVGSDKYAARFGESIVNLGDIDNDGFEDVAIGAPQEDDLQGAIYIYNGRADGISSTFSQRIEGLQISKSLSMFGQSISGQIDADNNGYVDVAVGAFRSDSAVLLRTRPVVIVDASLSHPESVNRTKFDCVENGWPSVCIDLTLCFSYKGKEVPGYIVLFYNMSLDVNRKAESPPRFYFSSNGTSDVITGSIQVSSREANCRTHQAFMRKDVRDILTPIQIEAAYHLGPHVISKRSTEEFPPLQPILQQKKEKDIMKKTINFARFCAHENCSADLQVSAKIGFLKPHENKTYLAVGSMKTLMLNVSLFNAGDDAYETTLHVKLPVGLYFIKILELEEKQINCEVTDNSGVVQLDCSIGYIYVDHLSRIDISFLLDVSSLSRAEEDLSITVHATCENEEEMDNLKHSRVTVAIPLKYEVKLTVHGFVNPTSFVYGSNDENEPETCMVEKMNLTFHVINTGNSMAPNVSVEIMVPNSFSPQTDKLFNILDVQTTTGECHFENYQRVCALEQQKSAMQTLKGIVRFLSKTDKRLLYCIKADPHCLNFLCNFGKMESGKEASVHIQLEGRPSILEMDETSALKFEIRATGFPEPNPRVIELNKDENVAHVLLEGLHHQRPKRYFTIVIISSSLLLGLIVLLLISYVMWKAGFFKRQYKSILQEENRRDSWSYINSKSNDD
Sequence of VLA-4 (a4b1) (P05556 21-798): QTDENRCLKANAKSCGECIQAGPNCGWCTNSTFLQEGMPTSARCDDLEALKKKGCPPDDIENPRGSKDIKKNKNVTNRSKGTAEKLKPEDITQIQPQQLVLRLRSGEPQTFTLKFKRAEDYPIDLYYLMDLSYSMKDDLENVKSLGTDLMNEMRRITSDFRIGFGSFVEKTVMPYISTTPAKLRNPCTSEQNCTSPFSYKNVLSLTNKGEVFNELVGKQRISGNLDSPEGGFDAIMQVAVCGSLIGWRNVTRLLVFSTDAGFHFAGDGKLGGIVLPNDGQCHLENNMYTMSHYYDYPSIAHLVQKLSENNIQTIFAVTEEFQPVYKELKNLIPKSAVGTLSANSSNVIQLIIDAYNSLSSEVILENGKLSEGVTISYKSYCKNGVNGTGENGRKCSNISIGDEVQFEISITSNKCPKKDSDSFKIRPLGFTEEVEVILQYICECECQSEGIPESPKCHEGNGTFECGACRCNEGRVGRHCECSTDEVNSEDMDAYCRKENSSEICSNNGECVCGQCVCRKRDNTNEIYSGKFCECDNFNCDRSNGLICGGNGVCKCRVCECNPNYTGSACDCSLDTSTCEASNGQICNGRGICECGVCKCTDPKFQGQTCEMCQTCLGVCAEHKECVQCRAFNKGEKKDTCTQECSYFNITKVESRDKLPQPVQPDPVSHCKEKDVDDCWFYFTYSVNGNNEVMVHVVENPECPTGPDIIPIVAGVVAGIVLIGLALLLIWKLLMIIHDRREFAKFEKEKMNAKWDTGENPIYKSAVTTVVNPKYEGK
Sequence of integrin a4b7 (P13612 34-970): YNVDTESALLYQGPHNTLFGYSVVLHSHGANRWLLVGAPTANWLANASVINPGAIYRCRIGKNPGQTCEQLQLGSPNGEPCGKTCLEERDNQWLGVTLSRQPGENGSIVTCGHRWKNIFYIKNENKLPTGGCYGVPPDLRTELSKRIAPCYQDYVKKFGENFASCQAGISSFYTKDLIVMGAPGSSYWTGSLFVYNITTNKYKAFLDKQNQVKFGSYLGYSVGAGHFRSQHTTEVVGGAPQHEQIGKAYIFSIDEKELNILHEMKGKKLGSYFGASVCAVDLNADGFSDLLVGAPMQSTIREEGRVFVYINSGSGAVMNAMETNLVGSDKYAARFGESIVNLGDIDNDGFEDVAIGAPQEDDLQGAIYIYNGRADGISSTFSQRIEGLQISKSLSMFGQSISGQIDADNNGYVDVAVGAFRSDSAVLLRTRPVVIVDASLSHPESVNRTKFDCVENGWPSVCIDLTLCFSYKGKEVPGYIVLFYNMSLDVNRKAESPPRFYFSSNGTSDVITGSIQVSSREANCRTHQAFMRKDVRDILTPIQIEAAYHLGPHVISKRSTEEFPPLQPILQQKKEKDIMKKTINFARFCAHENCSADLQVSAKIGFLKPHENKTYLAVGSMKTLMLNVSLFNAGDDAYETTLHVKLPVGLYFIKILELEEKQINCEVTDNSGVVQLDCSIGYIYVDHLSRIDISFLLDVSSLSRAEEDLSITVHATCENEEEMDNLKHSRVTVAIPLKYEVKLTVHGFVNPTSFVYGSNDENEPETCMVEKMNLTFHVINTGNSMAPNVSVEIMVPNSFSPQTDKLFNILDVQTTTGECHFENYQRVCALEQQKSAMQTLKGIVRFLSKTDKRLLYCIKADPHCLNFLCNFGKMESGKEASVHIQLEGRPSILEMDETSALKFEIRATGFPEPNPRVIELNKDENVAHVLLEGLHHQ
Sequence of integrin a4b7 (P26010 20-723): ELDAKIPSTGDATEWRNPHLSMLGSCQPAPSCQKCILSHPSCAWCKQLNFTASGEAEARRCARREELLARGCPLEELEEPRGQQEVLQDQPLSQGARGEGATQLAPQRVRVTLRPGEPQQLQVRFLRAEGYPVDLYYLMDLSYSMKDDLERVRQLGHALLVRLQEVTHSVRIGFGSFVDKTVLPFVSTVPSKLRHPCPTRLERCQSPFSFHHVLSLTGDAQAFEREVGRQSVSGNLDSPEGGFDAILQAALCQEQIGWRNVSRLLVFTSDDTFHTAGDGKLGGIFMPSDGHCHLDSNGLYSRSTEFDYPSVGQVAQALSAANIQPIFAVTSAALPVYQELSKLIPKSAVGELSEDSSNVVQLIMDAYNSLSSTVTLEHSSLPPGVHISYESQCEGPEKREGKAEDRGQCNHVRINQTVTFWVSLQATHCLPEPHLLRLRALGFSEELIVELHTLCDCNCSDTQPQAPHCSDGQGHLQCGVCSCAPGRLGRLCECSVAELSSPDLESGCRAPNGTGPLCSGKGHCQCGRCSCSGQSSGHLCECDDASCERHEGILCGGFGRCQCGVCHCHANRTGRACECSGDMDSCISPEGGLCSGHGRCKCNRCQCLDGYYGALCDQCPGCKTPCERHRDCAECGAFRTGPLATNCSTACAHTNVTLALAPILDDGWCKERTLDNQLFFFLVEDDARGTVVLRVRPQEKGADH

IC50 (VLA-4 (a4b1); as listed in TABLE 5, read-out: sVCAM IC50): 4.9 nM | IC50 (VLA-4 (a4b1); as listed in TABLE 7, read-out: sVCAM IC50): 4.9 nM | IC50 (VLA-4 (a4b1); [2]): 4.9 nM | IC50 (VLA-4 (a4b1); as listed in TABLE 20, read-out: sVCAM IC50): 4.9 nM | IC50 (VLA-4 (a4b1); [3]): 4.98 nM | IC50 (integrin a4b7): 1.1 nM
Structure (SMILES): COc1cccc(OC)c1-c1ccc(C[C@H](CC(=O)c2c(Cl)cc(C(=O)O)cc2Cl)C(=O)O)cc1 [Example C1]
time to which HSPC mobilization is extended after a single dose [1]: ≤ 2 h | HSPC mobilization, result in words ([1]; single dose): have returned to baseline | No. CFU (×10^3)/mL ± SD, 0.5 hr ([1]; single dose, peripheral blood, 0.5 hr post dose (TABLE 7)): 0.96 ± 0.33 (×10^3)/mL | No. CFU (×10^3)/mL ± SD, 1 hr ([1]; single dose, peripheral blood, 1 hr post dose (TABLE 20)): 2.16 ± 1.22 (×10^3)/mL | No. CFU (×10^3)/mL ± SD, 2 hr ([1]; single dose, peripheral blood, 2 hr post dose (TABLE 7)): 0.33 ± 0.14 (×10^3)/mL | No. CFU (×10^3)/mL ± SD, 4 hr ([1]; single dose, peripheral blood, 4 hr post dose (TABLE 7)): 0.08 ± 0.04 (×10^3)/mL | No. CFU (×10^3)/mL ± SD, 4 hr ([1]; single dose, peripheral blood, 4 hr post dose (TABLE 20)): 0.26 ± 0.18 (×10^3)/mL | No. CFU (×10^3)/mL ± SD, 8 hr ([1]; single dose, peripheral blood, 8 hr post dose (TABLE 20)): 0.13 ± 0.10 (×10^3)/mL | HSPC mobilization, result in words ([1]; single dose, listed as Comparator Compound 1): returned to baseline by 4 hours | No. CFU (x10^3)/mL ± SD, 2 hr ([1]; peripheral blood): 0.67 ± 0.12 (x10^3)/mL | No. CFU (x10^3)/mL ± SD, 4 hr ([1]; peripheral blood): 0.42 ± 0.14 (x10^3)/mL | No. CFU (x10^3)/mL ± SD, 6 hr ([1]; peripheral blood): 0.26 ± 0.07 (x10^3)/mL | No. CFU (x10^3)/mL ± SD, 8 hr ([1]; peripheral blood): 0.22 ± 0.02 (x10^3)/mL | No. CFU (×10^3)/mL ± SD, 0.25 hr ([1]; single s.c. injection, peripheral blood, 0.25 hr post dose (TABLE 5)): 3.98 ± 1.09 (×10^3)/mL | No. CFU (×10^3)/mL ± SD, 2 hr ([1]; single s.c. injection, peripheral blood, 2 hr post dose (TABLE 5)): 0.86 ± 0.25 (×10^3)/mL | No. CFU (×10^3)/mL ± SD, 4 hr ([1]; single s.c. injection, peripheral blood, 4 hr post dose (TABLE 5)): 0.27 ± 0.20 (×10^3)/mL

IC50 (VLA-4 (a4b1); as listed in TABLE 10, read-out: sVCAM IC50): 1.49 nM | IC50 (VLA-4 (a4b1); [2]): 1.49 nM | IC50 (VLA-4 (a4b1); as listed in TABLE 17, read-out: sVCAM IC50): 1.49 nM | IC50 (VLA-4 (a4b1); [3]): 1.49 nM | IC50 (integrin a4b7): 1.5 nM
Structure (SMILES): COCCOCCOCCOCCOCCOCCOCCOCCOCCOCCOCCOCCOCCOCCOCCOCCOCCOCCOCCOCCOCCOCCOCCOCCOCc1cc(OC)c(-c2ccc(C[C@H](NC(=O)c3c(Cl)cc(C(=O)O)cc3Cl)C(=O)O)cc2)c(OC)c1 [Example C17, (S)-4-((1-carboxy-2-(2′,6′-dimethoxy-4′-(2,5,8,11,14,17,20,23,26,29,32,35,38,41,44,47,50,53,56,59,62,65,68,71,74-pentacosaoxapentaheptacontyl)-[1,1′-biphenyl]-4-yl)ethyl)carbamoyl)-3,5-dichlorobenzoic acid]
HSPC mobilization in the triple combination regimen with plerixafor and truncated Groβ [1]: does not extend mobilization out to 6 hours | time to which HSPC mobilization is extended after a single dose [1]: ≤ 2 h | No. CFU (×10^3)/mL ± SD, 2 hr ([1]; alone or in combination with Plerixafor and tGroβ, peripheral blood, 2 hr (TABLE 17)): 4.77 ± 1.21 (×10^3)/mL | No. CFU (×10^3)/mL ± SD, 4 hr ([1]; alone or in combination with Plerixafor and tGroβ, peripheral blood, 4 hr (TABLE 17)): 0.81 ± 0.26 (×10^3)/mL | No. CFU (×10^3)/mL ± SD, 6 hr ([1]; alone or in combination with Plerixafor and tGroβ, peripheral blood, 6 hr (TABLE 17)): 0.26 ± 0.13 (×10^3)/mL | HSPC mobilization, result in words ([1]; single dose): returning to baseline by 4 hours and no mobilization at 6 hours; also recorded: does not extend mobilization; also recorded: do not provide for extended mobilization | No. CFU (×10^3)/mL ± SD, 2 hr ([1]; single dose, peripheral blood, 2 hr post dose (TABLE 10)): 3.67 ± 1.09 (×10^3)/mL | No. CFU (×10^3)/mL ± SD, 4 hr ([1]; single dose, peripheral blood, 4 hr post dose (TABLE 10)): 0.57 ± 0.21 (×10^3)/mL | No. CFU (×10^3)/mL ± SD, 6 hr ([1]; single dose, peripheral blood, 6 hr post dose (TABLE 10)): 0.28 ± 0.17 (×10^3)/mL | No. CFU (x10^3)/mL ± SD, 2 hr ([1]; peripheral blood): 4.32 ± 1.23 (x10^3)/mL | No. CFU (x10^3)/mL ± SD, 4 hr ([1]; peripheral blood): 1.21 ± 0.40 (x10^3)/mL | No. CFU (x10^3)/mL ± SD, 6 hr ([1]; peripheral blood): 0.26 ± 0.07 (x10^3)/mL | No. CFU (x10^3)/mL ± SD, 8 hr ([1]; peripheral blood): 0.19 ± 0.09 (x10^3)/mL
